Several values for one entry are separate records, joined by “and”; a condition that tells them apart may be missing. Equal values may be shown once. Entries after “also recorded” stand apart in the source; their conditions may differ. Read-outs that look alike come from different tables or passages of the source.
Key:
Format in all cases: in vivo, human
[1] = Plasma pharmacokinetics of pamiparib, single dose and steady state, non-compartmental; details: for CL/F / Cmax / AUC(0-t) / AUC(0-inf): geometric mean (geometric CV%); for Cmax / AUC(0-t) / half-life / Tmax / AUC(0-inf): human, plasma; for half-life: geometric mean (range)
Experimental: (§1) Secondary objectives were assessment of PK parameters and antitumor activity. Blood samples for the PK analysis were collected at Cycle 1 on Days 1, 2, and 3. Pharmacokinetic sampling was performed at Cycle 1 on Day 1 (predose and at 0.5, 1, 2, 4, 6, 9, and 12 hours postdose), Day 2, Day 3, and Day 10 (predose and at 0.5, 1, 2, 4, 6, 9, and 12 hours postdose); then at Cycles 2 and 3 on Day 1 (predose and at 2 hours postdose). […] Tumor assessments were performed by the investigators at screening, every 6 weeks after the first dose of pamiparib in the 1st year, and every 12 weeks thereafter until progression, per RECIST v1.1. Patients completed the study at the time of their safety follow‐up visit; therefore, radiological assessment of disease progression was not performed after the safety follow‐up visit. Approximately 14 to 18 evaluable patients were expected to enroll in the phase 1 part of the study. The safety population included all patients who received ≥1 dose of pamiparib. The PK population included all patients for whom valid pamiparib PK parameters could be estimated. Antitumor activity per RECIST v1.1 was assessed in all evaluable patients. […] The population evaluable for CA‐125 response included patients in the safety population with baseline CA‐125 ≥2 x upper limit of normal. Descriptive statistics were used to summarize all study data. Continuous variables included the number of non‐missing observations, mean, standard deviation, median, minimum, and maximum. Categorical variables were summarized by their frequency and percentage. Progression‐free survival was estimated using the Kaplan–Meier method and the corresponding 95% confidence interval (CI) was constructed using Greenwood's formula. Standard PK parameters (i.e., area under the plasma concentration‐time curve [AUC] from time of drug administration; maximum plasma concentration [Cmax]; time to Cmax; elimination half‐life [t1/2]; apparent clearance; and apparent volume of distribution during terminal phase) were estimated and derived using standard non‐compartmental methods.

[2] = system: non-mucinous high-grade ovarian cancer (HGOC); test: Antitumor activity per RECIST v1.1 (best overall response, ORR, CBR, PFS) in patients with HGOC
Experimental: as §1

advanced HGOC or TNBC = test: Progression-free survival, total safety population; details: Total (N=15)
Experimental: Secondary objectives were assessment of PK parameters and antitumor activity. Blood samples for the PK analysis were collected at Cycle 1 on Days 1, 2, and 3. Pharmacokinetic sampling was performed at Cycle 1 on Day 1 (predose and at 0.5, 1, 2, 4, 6, 9, and 12 hours postdose), Day 2, Day 3, and Day 10 (predose and at 0.5, 1, 2, 4, 6, 9, and 12 hours postdose); then at Cycles 2 and 3 on Day 1 (predose and at 2 hours postdose). […] Tumor assessments were performed by the investigators at screening, every 6 weeks after the first dose of pamiparib in the 1st year, and every 12 weeks thereafter until progression, per RECIST v1.1. Patients completed the study at the time of their safety follow‐up visit; therefore, radiological assessment of disease progression was not performed after the safety follow‐up visit. Descriptive statistics were used to summarize all study data. Continuous variables included the number of non‐missing observations, mean, standard deviation, median, minimum, and maximum. Categorical variables were summarized by their frequency and percentage. Progression‐free survival was estimated using the Kaplan–Meier method and the corresponding 95% confidence interval (CI) was constructed using Greenwood's formula. Standard PK parameters (i.e., area under the plasma concentration‐time curve [AUC] from time of drug administration; maximum plasma concentration [Cmax]; time to Cmax; elimination half‐life [t1/2]; apparent clearance; and apparent volume of distribution during terminal phase) were estimated and derived using standard non‐compartmental methods.

[3] = HGOC (n = 8), RECIST efficacy-evaluable
[4] = HGOC (n = 8), RECIST efficacy-evaluable, 20-60 mg BID

SMILES: C[C@]12CCCN1CC1=NNC(=O)c3cc(F)cc4[nH]c2c1c34 [pamiparib, Pamiparib]
- Accumulation ratio, AUC0-12 ([1]; 20 mg BID, n 4): 2.05
- Accumulation ratio, Cmax ([1]; 20 mg BID, n 4): 1.78
- Accumulation ratio, AUC0-12 ([1]; 40 mg BID, n 4): 3.95
- Accumulation ratio, Cmax ([1]; 40 mg BID, n 4): 3.19
- Accumulation ratio, AUC0-12 ([1]; 60 mg BID, n 5): 3.4 and 3.36
- Accumulation ratio, Cmax ([1]; 60 mg BID, n 5): 2.6 and 2.62
- CL/F ([1]; Single dose, 20 mg BID cohort, N 4): 1.95 (44) L/hr
- CL/F ([1]; Single dose, 40 mg BID cohort, N 4): 2.07 (61) L/hr
- CL/F ([1]; Single dose, 60 mg BID cohort, N 7): 2.19 (79) L/hr
- Dose proportionality of plasma exposure (AUC and Cmax) ([1]; between 20 mg and 60 mg BID, after a single dose): increased near proportionally; also recorded: near dose‐proportional
- Cmax ([1]; oral, 20 mg, Single dose, 20 mg BID cohort, N 4, plasma): 718 ng/mL
- AUC(0-t) ([1]; oral, 20 mg, Single dose, 20 mg BID cohort, N 4, read-out: AUC0-9): 4130 ng·h/mL
- AUC(0-t) ([1]; oral, 20 mg, Single dose, 20 mg BID cohort, N 4, read-out: AUC0-12): 5030 ng·h/mL
- half-life ([1]; oral, 20 mg, Single dose, 20 mg BID cohort, N 4): 12.1 h
- Tmax ([1]; oral, 20 mg, Single dose, 20 mg BID cohort, N 4, median (range), read-out: Tmax): 1.01 h
- Cmax ([1]; oral, 20 mg, Steady state (Cycle 1 Day 10), 20 mg BID, N 4): 1280 ng/mL
- AUC(0-t) ([1]; oral, 20 mg, Steady state (Cycle 1 Day 10), 20 mg BID, N 4, read-out: AUC0-9): 8360 ng·h/mL
- AUC(0-t) ([1]; oral, 20 mg, Steady state (Cycle 1 Day 10), 20 mg BID, N 4, read-out: AUC0-12): 10300 ng·h/mL
- Tmax ([1]; oral, 20 mg, Steady state (Cycle 1 Day 10), 20 mg BID, N 4, median (range), read-out: Tmax): 1.04 h
- Cmax ([1]; oral, 40 mg, Single dose, 40 mg BID cohort, N 4, plasma): 1630 ng/mL
- AUC(0-t) ([1]; oral, 40 mg, Single dose, 40 mg BID cohort, N 4, read-out: AUC0-9): 8560 ng·h/mL
- AUC(0-t) ([1]; oral, 40 mg, Single dose, 40 mg BID cohort, N 4, read-out: AUC0-12): 10400 ng·h/mL
- half-life ([1]; oral, 40 mg, Single dose, 40 mg BID cohort, N 4): 11.8 h
- Tmax ([1]; oral, 40 mg, Single dose, 40 mg BID cohort, N 4, median (range), read-out: Tmax): 0.98 h
- Cmax ([1]; oral, 40 mg, Steady state (Cycle 1 Day 10), 40 mg BID, N 4): 5210 ng/mL
- AUC(0-t) ([1]; oral, 40 mg, Steady state (Cycle 1 Day 10), 40 mg BID, N 4, read-out: AUC0-9): 32500 ng·h/mL
- AUC(0-t) ([1]; oral, 40 mg, Steady state (Cycle 1 Day 10), 40 mg BID, N 4, read-out: AUC0-12): 40900 ng·h/mL
- Tmax ([1]; oral, 40 mg, Steady state (Cycle 1 Day 10), 40 mg BID, N 4, median (range), read-out: Tmax): 1.1 h
- Cmax ([1]; oral, 60 mg, Single dose, 60 mg BID cohort, N 7, plasma): 2300 ng/mL
- AUC(0-t) ([1]; oral, 60 mg, Single dose, 60 mg BID cohort, N 7, read-out: AUC0-9): 11900 ng·h/mL
- AUC(0-t) ([1]; oral, 60 mg, Single dose, 60 mg BID cohort, N 7, read-out: AUC0-12): 14800 ng·h/mL
- half-life ([1]; oral, 60 mg, Single dose, 60 mg BID cohort, N 7): ~14 h
- Tmax ([1]; oral, 60 mg, Single dose, 60 mg BID cohort, N 7, median (range), read-out: Tmax): 1.13 h
- Cmax ([1]; oral, 60 mg, Steady state (Cycle 1 Day 10), 60 mg BID, N 5): 5860 ng/mL
- AUC(0-t) ([1]; oral, 60 mg, Steady state (Cycle 1 Day 10), 60 mg BID, N 5, read-out: AUC0-9): 38100 ng·h/mL
- AUC(0-t) ([1]; oral, 60 mg, Steady state (Cycle 1 Day 10), 60 mg BID, N 5, read-out: AUC0-12): 47100 ng·h/mL
- Tmax ([1]; oral, 60 mg, Steady state (Cycle 1 Day 10), 60 mg BID, N 5, median (range), read-out: Tmax): 1.13 h
- AUC(0-inf) ([1]; oral, Single dose, 20 mg BID cohort, N 4): 10200 ng·h/mL
- AUC(0-inf) ([1]; oral, Single dose, 40 mg BID cohort, N 4): 19300 ng·h/mL
- AUC(0-inf) ([1]; oral, Single dose, 60 mg BID cohort, N 7): 27500 ng·h/mL
- Tmax ([1]; po, 60 mg, oral administration, RP2D of 60 mg BID, read-out: median Tmax): ~1 h
- Plasma exposure after a single dose compared with FIH study ([1]; single-dose administration): similar
- Steady-state exposure compared with FIH study ([1]; steady state): slightly higher
- Clinical benefit rate (CR+PR+SD ≥24 weeks) [2, 3]: 62.5 % (95% CI) and 62.5 (24.5‐91.5) % (95% CI)
- Disease control rate (CR+PR+SD) [2, 3]: 100 % (95% CI) and 100.0 (63.1‐100) % (95% CI)
- Objective response rate (CR+PR) [2, 3]: 25.0 (3.2‐65.1) % (95% CI)
- Best overall response: Complete response [2, 4]: 0 n (%)
- Best overall response: Progressive disease [2, 4]: 0 n (%)
- Event-free rate at 3 months (95% CI) ([2]; HGOC (n=9), Kaplan-Meier): 85.7 (33.41–97.86) %
- Event-free rate at 6 months (95% CI) ([2]; HGOC (n=9), Kaplan-Meier): 68.6 (21.28–91.21) %
- Event-free rate at 9 months (95% CI) ([2]; HGOC (n=9), Kaplan-Meier): 68.6 (21.28–91.21) %
- Median PFS (95% CI) ([2]; HGOC (n=9), Kaplan-Meier, NE, not estimable): NE (2.86–NE)
- PFS Events ([2]; HGOC (n=9), safety population): 2 (22.2) n (%)
- Confirmed PR, gBRCA WT patients ([2]; RECIST-evaluable HGOC (n = 8)): 1 n
- Confirmed PR, gBRCA mut patients ([2]; RECIST-evaluable HGOC (n = 8)): 1 n
- Response duration at data cut-off ([2]; one patient with HGOC, 20 mg dose level, PR, treatment ongoing): 27.7 months
- Event-free rate at 3 months (95% CI) (advanced HGOC or TNBC; Kaplan-Meier): 50.0 (20.85–73.61) %
- Event-free rate at 6 months (95% CI) (advanced HGOC or TNBC; Kaplan-Meier): 40.0 (13.52–65.73) %
- Event-free rate at 9 months (95% CI) (advanced HGOC or TNBC; Kaplan-Meier): 40.0 (13.52–65.73) %
- Median PFS (95% CI) (advanced HGOC or TNBC; Kaplan-Meier, NE, not estimable): 4.2 (1.48–NE) months
- PFS Events (advanced HGOC or TNBC; safety population): 7 (46.7) n (%)
- PFS events: Disease progression (advanced HGOC or TNBC; safety population): 7 (46.7) n (%)
